One experiment has as its target human BTK (Homo sapiens (Human), UniProt Q06187). Briefly: BTK LANTHASCREEN Eu Kinase Binding Assay. The following applies: IC50 value ± standard deviation; full-length His-labeled BTK, kinase tracer 236; read-out: hBTK Rel IC50. The procedure:
(§1) BTK and EGFR in Vitro Assays:
(§2) The BTK and EGFR biochemical assays utilize LANTHASCREEN® Eu Kinase Binding Assays from Thermo Fisher Scientific, measuring the binding of the kinase with a […] tracer. The assay buffer consists of 50 mM HEPES pH 7.5, 0.01% BRU™-35, 10 mM MgCl2, 1 mM EGTA, and 1 mM DTT. The test compounds are diluted and added to the assay plate with a Labcyte ECHO® 555 liquid handler. The compounds are tested in 10 point dose response curves (100 μM-0.005 μM) with a maximum DMSO concentration of 1%. The assays are performed in 20 μL in low-volume 384-well white proxiplates. For the BTK assay, the concentration of full-length His-labeled BTK in the assay is 5 nM, the Eu-anti-His antibody is 2 nM, and the kinase tracer 236 is 60 nM. For the EGFR assay, the concentration of truncated (amino acids 668-1210) GST-labeled EGFR is 5 nM, the Eu-anti-GST antibody is 2 nM, and the kinase tracer 199 is 10 nM. The components of the assay (compound, enzyme/antibody, tracer) are assembled and incubated for 30 min prior to being read on a Perkin-Elmer EnVision with excitation at 340 nm, tracer emission at 665 nm, and antibody emission at 615 nm. The signal ratio is converted to percent inhibition using the following equation: % Inhibition=100−[(Test Compound−Median Minimum)/(Median Maximum−Median Minimum)×100].
(§3) The following Table 1 and Table 2 describes the relative IC50 data vs. human BTK, human EGFR, and human whole blood CD69.

In experiment [1] the test system is activated B cells in human whole blood (CD69). In words: Human Whole Blood CD69 in vitro assay (B cell activation, flow cytometry). Type of experiment: cell-based. Conditions: IC50 value ± standard deviation, anti-human-IgD-Dextran stimulation, read-out: HWB CD69 Rel IC50. Here is the method:
Human Whole Blood CD69 in Vitro Assay:
The HWB CD69 assay measures activated B cells in human whole blood using a flow cytometer. Compounds are diluted and added to assay plates with a Labcyte ECHO® 555 liquid handler. Compounds are tested in 10 point dose response curves (20 μM-0.001 μM) in 96-well v-bottom plates with a maximum DMSO concentration of 0.2%. Fresh blood from individual healthy volunteer is mixed with HEPES (0.5 ml HEPES added per 10 ml blood) and 100 μl/well is added to compound plates. The plates are sealed and incubated in a 37° C. incubator for 3 h. Anti-human-IgD-Dextran is added to each well to give a final concentration of 100 ng/ml, mixed, and put back into the incubator. After 1 h, the cells are washed with cold FACS buffer and transferred to a deep well plate. The cells are incubated with anti-human CD69-PE (BIOLEGEND®, clone FN50) and anti-human CD19-APC (BIOLEGEND®, clone HIB19) antibodies on ice for 20 min. The cells are washed and incubated in eBioscience™ 1-step Fix/Lyse solution (10×) at RT to lyse the red blood cells and fix the other cells. The white cells are pelleted and washed in FACS buffer and then brought up in read buffer. The suspended cells are transferred to 96-well round bottom plates and read on an IntelliCyt iQue® Screener Plus flow cytometer. From the SSC (Side Scatter Channel) vs FSC (Forward Scatter Channel) graph, the lymphocytes are identified. Lymphocytes are identified with gated on positive CD19 marker for quantify CD69 (a marker of activated B lymphocytes) MFI (mean fluorescent intensity/cell). The signal ratio is converted to percent inhibition using the following equation: % Inhibition=100−[(Test Compound−Median Min)/(Median Max−Median Min)×100].
as §3

A further experiment concerns the target human EGFR (Homo sapiens (Human), UniProt P00533). Briefly: EGFR LANTHASCREEN Eu Kinase Binding Assay. The following applies: IC50 value ± standard deviation; truncated GST-labeled EGFR, kinase tracer 199; read-out: hEGFR Rel IC50. The procedure: as §1, §2

Bounds are passed on as bounds.

human BTK, sequence (Q06187 whole entry): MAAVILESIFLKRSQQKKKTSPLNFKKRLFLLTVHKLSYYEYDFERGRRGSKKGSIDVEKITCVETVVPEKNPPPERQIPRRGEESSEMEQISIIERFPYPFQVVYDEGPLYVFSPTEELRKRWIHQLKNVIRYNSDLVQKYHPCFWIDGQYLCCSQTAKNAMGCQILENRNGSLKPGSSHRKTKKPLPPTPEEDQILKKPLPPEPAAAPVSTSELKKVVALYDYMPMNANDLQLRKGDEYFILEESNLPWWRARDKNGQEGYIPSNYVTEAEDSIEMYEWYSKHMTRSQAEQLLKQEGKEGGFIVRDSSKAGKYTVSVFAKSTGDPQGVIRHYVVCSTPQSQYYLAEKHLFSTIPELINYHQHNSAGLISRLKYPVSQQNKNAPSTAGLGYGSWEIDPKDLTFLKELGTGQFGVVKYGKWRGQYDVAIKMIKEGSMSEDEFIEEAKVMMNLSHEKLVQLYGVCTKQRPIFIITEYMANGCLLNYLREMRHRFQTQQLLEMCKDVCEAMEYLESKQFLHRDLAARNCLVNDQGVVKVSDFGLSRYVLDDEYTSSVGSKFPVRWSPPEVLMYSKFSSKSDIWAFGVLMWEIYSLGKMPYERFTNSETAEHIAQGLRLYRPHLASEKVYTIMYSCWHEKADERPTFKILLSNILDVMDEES
human EGFR, sequence (P00533 668-1210): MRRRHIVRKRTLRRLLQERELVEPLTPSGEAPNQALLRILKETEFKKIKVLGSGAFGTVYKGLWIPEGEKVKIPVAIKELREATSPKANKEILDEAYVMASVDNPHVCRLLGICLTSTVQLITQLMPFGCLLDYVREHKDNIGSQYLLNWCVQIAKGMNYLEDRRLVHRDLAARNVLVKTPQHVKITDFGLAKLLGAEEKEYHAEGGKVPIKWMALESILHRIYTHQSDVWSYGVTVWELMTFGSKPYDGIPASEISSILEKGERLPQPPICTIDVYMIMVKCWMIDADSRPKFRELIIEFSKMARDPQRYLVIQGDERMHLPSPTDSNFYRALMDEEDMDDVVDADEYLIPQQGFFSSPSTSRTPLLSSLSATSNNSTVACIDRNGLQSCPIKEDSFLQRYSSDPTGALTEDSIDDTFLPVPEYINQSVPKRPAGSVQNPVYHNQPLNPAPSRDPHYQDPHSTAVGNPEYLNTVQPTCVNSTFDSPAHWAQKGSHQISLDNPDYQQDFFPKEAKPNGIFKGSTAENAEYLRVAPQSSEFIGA

Consider `C=CC(=O)N1CC(C)(Nc2cncc(-c3cnc(Oc4cccc(Cl)c4)nc3)n2)C1` [Example 29, 1-[3-[[6-[2-(3-chlorophenoxy)pyrimidin-5-yl]pyrazin-2-yl]amino]-3-methyl-azetidin-1-yl]prop-2-en-1-one], for which the half-maximal inhibitory concentration (IC50) came to 17.7 ± 1.35 nM at human BTK, 584 ± 372 nM in experiment [1] and 3470 ± 911 nM at human EGFR.

In the case of `C=CC(=O)N1CCC(Nc2cncc(-c3cnc(Nc4cccc(C)n4)nc3)c2)CC1` [Example 20, 1-[4-[[5-[2-[(6-methyl-2-pyridyl)amino]pyrimidin-5-yl]-3-pyridyl]amino]-1-piperidyl]prop-2-en-1-one], the IC50 on human BTK was 16.9 ± 3.93 nM; in experiment [1], 208 ± 132 nM; on human EGFR, 2220 ± 649 nM.

On to `C=CC(=O)N1CCC(Nc2cncc(-c3cnc(Oc4cccc(OC(F)F)c4)nc3)n2)CC1` [Example 38, 1-[4-[[6-[2-[3-(difluoromethoxy)phenoxy]pyrimidin-5-yl]pyrazin-2-yl]amino]-1-piperidyl]prop-2-en-1-one], for which the IC50 on human BTK came out at 6.89 ± 0.835 nM; in experiment [1], 66.6 ± 19.9 nM; at human EGFR it was 908 ± 546 nM.

`C=CC(=O)N1CC(Nc2cncc(-c3cnc(Oc4cc(F)cc(F)c4)nc3)n2)C1` [Example 30, 1-[3-[[6-[2-(3,5-difluorophenoxy)pyrimidin-5-yl]pyrazin-2-yl]amino]azetidin-1-yl]prop-2-en-1-one]: the half-inhibitory concentration (IC50) is 43.2 ± 11.9 nM on human BTK, 815 ± 110 nM in experiment [1] and 1080 ± 229 nM on human EGFR.

As to `C=CC(=O)N1CC(Nc2cncc(-c3cnc(Nc4cccc(C(F)(F)F)c4)nc3)c2)C1` [Example 18, 1-[3-[[5-[2-[3-(trifluoromethyl)anilino]pyrimidin-5-yl]-3-pyridyl]amino]azetidin-1-yl]prop-2-en-1-one], the results for the IC50 (on human BTK; in experiment [1]; at human EGFR) were below 5 nM, 71 ± 12.8 nM and 247 ± 99.3 nM, respectively.

For `C=CC(=O)N1CCC(Nc2cncc(-c3cnc(Nc4cccc(Cl)c4)nc3)c2)CC1C` (stereo not drawn) [Example 47, 1-[4-[[5-[2-(3-chloroanilino)pyrimidin-5-yl]-3-pyridyl]amino]-2-methyl-1-piperidyl]prop-2-en-1-one], the IC50 on human BTK is 6.7 nM; in experiment [1] it was 355 ± 39 nM; on human EGFR, 6100 nM.

For the molecule `C=CC(=O)N1CC(Nc2cncc(-c3cnc(Oc4cccc(Cl)c4)nc3)c2)C1` [Example 7, 1-[3-[[5-[2-(3-chlorophenoxy)pyrimidin-5-yl]-3-pyridyl]amino]azetidin-1-yl]prop-2-en-1-one], the IC50 at human BTK was determined as 9.73 ± 2.01 nM; in experiment [1], 180 ± 46 nM; at human EGFR, 129 ± 55.3 nM.

Consider `C=CC(=O)N1CC[C@H](Nc2cncc(-c3cnc(Oc4cccc(Cl)c4)nc3)c2)C1` [Example 6, 1-[(3S)-3-[[5-[2-(3-chlorophenoxy)pyrimidin-5-yl]-3-pyridyl]amino]pyrrolidin-1-yl]prop-2-en-1-one], for which the IC50 on human BTK turned out to be 72.4 ± 4.22 nM; in experiment [1], 671 ± 236 nM; at human EGFR it was 5180 ± 441 nM.

Regarding `C=CC(=O)N1CC(Nc2cncc(-c3cnc(Oc4ccc(F)c(Cl)c4)nc3)c2)C1` [Example 13, 1-[3-[[5-[2-(3-chloro-4-fluoro-phenoxy)pyrimidin-5-yl]-3-pyridyl]amino]azetidin-1-yl]prop-2-en-1-one], the IC50 at human BTK came out at 38.2 ± 16.9 nM; in experiment [1], 715 ± 93.5 nM; at human EGFR, 450 ± 53.2 nM.

On to `C=CC(=O)N1CC(Nc2cncc(-c3cnc(Oc4cccc(C(F)(F)F)c4)nc3)n2)C1` [Example 26, 1-[3-[[6-[2-[3-(trifluoromethyl)phenoxy]pyrimidin-5-yl]pyrazin-2-yl]amino]azetidin-1-yl]prop-2-en-1-one], for which the IC50 is 30.2 ± 4.32 nM at human BTK, 490 ± 255 nM in experiment [1] and 4030 ± 1920 nM on human EGFR.

On to `C=CC(=O)N1CC(Nc2cncc(-c3cnc(Oc4ccc(Cl)cc4)nc3)n2)C1` [Example 41, 1-[3-[[6-[2-(4-chlorophenoxy)pyrimidin-5-yl]pyrazin-2-yl]amino]azetidin-1-yl]prop-2-en-1-one], for which the results for the IC50 (on human BTK; in experiment [1]; on human EGFR) were 96.8 ± 15.6 nM, 2160 ± 420 nM and 2110 ± 487 nM, respectively.

As to `C=CC(=O)N1CC(Nc2cncc(-c3cnc(Oc4ccccc4)nc3)n2)C1` [Example 28, 1-[3-[[6-(2-phenoxypyrimidin-5-yl)pyrazin-2-yl]amino]azetidin-1-yl]prop-2-en-1-one], the IC50 at human BTK worked out at 42.9 ± 5.09 nM; in experiment [1] it was 742 ± 323 nM; on human EGFR, 1470 ± 209 nM.

With `C=CC(=O)N1CC(Nc2cncc(-c3cnc(Oc4cccc(OC)c4)nc3)n2)C1` [Example 42, 1-[3-[[6-[2-(3-methoxyphenoxy)pyrimidin-5-yl]pyrazin-2-yl]amino]azetidin-1-yl]prop-2-en-1-one], the half-inhibitory concentration (IC50) was 19.4 ± 1.67 nM on human BTK, 226 ± 53 nM in experiment [1] and 2820 ± 492 nM on human EGFR.

Take `C=CC(=O)N1CC(Nc2cncc(-c3cnc(Nc4cccc(C)n4)nc3)n2)C1` [Example 40, 1-[3-[[6-[2-[(6-methyl-2-pyridyl)amino]pyrimidin-5-yl]pyrazin-2-yl]amino]azetidin-1-yl]prop-2-en-1-one]: the values for the half-inhibitory concentration (IC50) (on human BTK; in experiment [1]; at human EGFR) were 5.58 ± 0.182 nM, 144 ± 53.4 nM and 54.9 ± 15.4 nM, respectively.

Regarding `C=CC(=O)N1CC[C@H](Nc2cncc(-c3cnc(Nc4cccc(OC(F)F)c4)nc3)n2)C1` [Example 39, 1-[(3S)-3-[[6-[2-[3-(difluoromethoxy)anilino]pyrimidin-5-yl]pyrazin-2-yl]amino]pyrrolidin-1-yl]prop-2-en-1-one], the values for the IC50 (on human BTK; in experiment [1]; at human EGFR) were 5.6 nM, 103 ± 60.6 nM and 1460 ± 200 nM, respectively.

Consider `CN(C)C/C=C/C(=O)N1CCC(Nc2cncc(-c3cnc(Nc4cccc(Cl)c4)nc3)n2)CC1` [Example 46, (E)-1-[4-[[6-[2-(3-chloroanilino)pyrimidin-5-yl]pyrazin-2-yl]amino]-1-piperidyl]-4-(dimethylamino)but-2-en-1-one], for which the values for the half-inhibitory concentration (IC50) (at human BTK; in experiment [1]; at human EGFR) were below 5 nM, 157 ± 52.3 nM and 6040 ± 2090 nM, respectively.

In the case of `C=CC(=O)N1CC(Nc2cncc(-c3cnc(Oc4ccc(F)c(OC(F)F)c4)nc3)c2)C1` [Example 9, 1-[3-[[5-[2-[3-(difluoromethoxy)-4-fluoro-phenoxy]pyrimidin-5-yl]-3-pyridyl]amino]azetidin-1-yl]prop-2-en-1-one], the IC50 at human BTK was determined as 60.6 ± 0.351 nM; in experiment [1] it was 655 ± 295 nM; at human EGFR, 3760 ± 1400 nM.

On to `C#Cc1cccc(Oc2ncc(-c3cncc(NC4CN(C(=O)C=C)C4)c3)cn2)c1` [Example 14, 1-[3-[[5-[2-(3-ethynylphenoxy)pyrimidin-5-yl]-3-pyridyl]amino]azetidin-1-yl]prop-2-en-1-one], for which the IC50 at human BTK amounted to 17.8 ± 3.77 nM; in experiment [1] it was 299 ± 143 nM; on human EGFR it was 242 ± 231 nM.

These data come from patent US11542249B2, “BTK inhibitor compounds” (Eli Lilly and Company, priority 2017, dated 2023).
